Measured values taken from US20030082200A1, “52 kda protein from coagulase negative staphylococci and fragments thereof” (priority 2000, published 2003).

Legend:
[1] = system: immobilized Vn binding to S. epidermidis strain BD5703; test: Inhibition test: binding of 3H-labeled bacteria to Vn coated wells; type: cell-based, Staphylococcus epidermidis; details: for Effect on BD5703 binding of immobilized Vn (in words): component added at the same time as bacteria
Description: (§1) ^3H-labeled bacteria were used for these tests. In brief, half a milliliter of an overnight cultured bacteria in TH broth was diluted in 5 ml TH broth containing 50 μCi of [methyl-^3H]thymidine (Amersham Plc., Buckinghamshire, UJK) and cultured for 5 hours at 37° C. on a gyrator shaker with vigorous agitation.
In another experiment, 50 μl bacteria (2×10^7cfu/ml) were mixed with the same volume of four mono-carbohydrates (0.1M D-fucose, 0.1M D-galactose, 0.1M D-glucose and 0.1M D-mannose), heparin (2 mg/ml), hyaluronic acid (2 mg/ml) or Vn (20 μg/ml). These mixtures with bacteria were incubated for 1 hour at 37° C. Heparin sodium salt and hyaluronic acid were purchased from Fluka Chemie AG, Buchs, Switzerland)
(§2) Finally, all wells were washed by PBS 5 times, individual wells were removed and immersed in 2.5 ml scintillation fluid (BDH chemicals, Pool, UK) and the radioactivity was counted in a liquid scintillation counter (Beckman Instruments, Fullerton, Calif., USA). Quantitation of relative binding percentage was achieved by the radioactivity from experimental groups in relation to the radioactivity from non-treated group.

[2] = system: immobilized Vn binding to S. epidermidis strain BD5703; test: as above; type: cell-based, Staphylococcus epidermidis
16 kDa protein of BD5703 = test: Autoradiograph inhibition test: labeled Vn binding to blotted surface proteins; set-up: species or system Staphylococcus epidermidis; details: competing proteins 10 μg/ml; heparin, hyaluronic acid 1 mg/ml; autoradiography
Description: (§3) SDS-PAGE was performed on mini-Protean II cell (Bio-Rad, Richmond, Calif.) as previously described (16). The bacterial surface structures were extracted by 1M lithium chloride (pH 5) with protease inhibitor (Boehringer Mannheim, Mannheim, Germany) at 37° C. for 2 hours with end to end rotation. Extract was subjected to homogenous gel (12%) or gradient gel (4-15%) electrophoresis. The running and transfer conditions were as previously described (17).
(§4) The PDVF membranes (Micron Separations INC., Westborough, USA) were saturated with incubation in blocking buffers I and II (buffer I containing 0.6% ethanolamine, 0.9% glycine, 1% polyvinylpyrrolidone and 25% methanol pH 9.6; buffer II containing 0.6% ethanolamine, 0.9% glycine, 0.05% gelatin hydrolysate and 0.125% Tween 20 pH 9.6) for 15 min respectively (18). Saturated membranes were rinsed three times in PBST (PBS with 1% Tween 20). Then, the membranes were incubated with ^125I-labeled Vn (0.4 μg/ml) in PBST or in PBST supplemented with 1.05 M sodium chloride (final sodium chloride concentration 1.2M) overnight at 20° C. The membranes were washed and dried, then examined by autoradiography with X-Omat AR film (Eastman Kodak) after 3 days storage at −70° C.
(§5) For inhibition tests, the membrane with retained bacterial surface molecules was cut to individual strips, and then incubated with labeled Vn (0.4 μg/ml) in PBST mixed with different unlabeled competing molecules, including Vn (10 μg/ml), fibronectin (10 μg/ml), fibrinogen (10μg/ml), thrombospondin ([…]), plasminogen (10 μg/ml), human immunoglobulins (10 μg/ml), hemopexin (10 μg/ml), heparin (1 mg/ml). In a separate experiment, the strips were preincubated with heparin (1 mg/ml) and hyaluronic acid (1 mg/ml) for 1 hour at 20° C. prior to adding labeled Vn.

21 kDa protein of BD5703 = test: as above; set-up: species or system Staphylococcus epidermidis; details: competing proteins 10 μg/ml; heparin, hyaluronic acid 1 mg/ml; autoradiography
Description: as §3, §4, §5

52 kDa protein of BD5703 = test: as above; set-up: species or system Staphylococcus epidermidis; details: competing proteins 10 μg/ml; heparin, hyaluronic acid 1 mg/ml; autoradiography
Description: as §3, §4, §5

38 kDa protein of BD5703 = test: as above; set-up: species or system Staphylococcus epidermidis; details: competing proteins 10 μg/ml; heparin, hyaluronic acid 1 mg/ml; autoradiography
Description: as §3, §4, §5

[3] = system: immobilized S. epidermidis strain BD5703; test: Binding of soluble 125I-labeled Vn to cells immobilized on ELISA plate wells; set-up: species or system Staphylococcus epidermidis; details: two-fold diluted 125I-Vn, maximally 5 μg/ml; FIG. 1
Description: (§6) Fifty micrograms of Vn was labeled with Na ^125I (Amersham Plc., Buckinghamshire, UK) using the modified chloramine-T method (specificity, 1×10^6 cpm/μg), and used in a minor modified soluble binding test with final reaction volume of 150 μl in PBS (15). During binding experiments, radiolabeled protein were diluted to approx. 0.025 μg (25,000cpm) and incubated with bacteria (10^9 cells per test tube). In an alternative method, cells of BD5703 were immobilized on ELISA plates (Costar Co., Cambridge, USA) by incubating 100 μl of bacterial suspension (2×10^7 cells in PBS) for 30 min at 37° C. Non-attached bacteria were removed by 3 washes with PBS. The remaining sites on the plastic were blocked by 2%, a bovine serum albumin in PBS (BSA-PBS) for 1 hour at 37° C. The wells were washed with PBS, and two-fold diluted ^125I-labeled Vn in 1% BSA-PBS (maximally 5 μg/ml) was added. Wells coated with 1% BSA served as background. After incubation at 37° C. for 45 min and washes with PBS, individual wells were removed and the radioactivity was measured in a gamma counter (LKB-Wallac, Turku, Finland).

[4] = system: S. epidermidis strain BD5703; test: Bacterial binding of soluble 125I-labeled Vn; set-up: species or system Staphylococcus epidermidis; details: less than 5% is considered as negative binding
Description: as §6

S. aureus strain V8 = test: Bacterial binding of soluble 125I-labeled Vn; set-up: species or system Staphylococcus aureus; details: reference strain V8
Description: as §6

BD5703 surface proteins = test: Autoradiograph inhibition test: labeled Vn binding to blotted surface proteins; set-up: species or system Staphylococcus epidermidis; details: unlabeled Vn 10 μg/ml; autoradiography
Description: as §3, §4, §5

S. aureus V8 = test: Proteolytic treatment of bacterial cells, binding of immobilized Vn; type: cell-based, Staphylococcus aureus; details: V8 cells treated with protease; non-treated control = 100
Description: as §1
(§7) 3H-labeled bacteria cells (5×10^8) were suspended in 1 ml PBS heated at 100° C. for 30 min and rapidly cooled. The same amount of bacteria was treated by pronase E, protease K and trypsin (Sigma Chemical Co., St. Louis, USA) as previously described (15). After washes in PBS, 100 μl (1×10^7 cells) treated bacterial suspension were added into the Vn coated wells.
as §2

immobilized Vn = test: Trypsin treatment of Vn-coated wells, binding assay with 3H labeled bacteria; type: cell-based; details: trypsin 2 μg/well, 37° C. for 2 hours
Description: The wells pre-adsorbed with Vn were trypsinized at a concentration of 2 μg/well in PBS with 1 mM CaCl2 (37° C. for 2 hours) following an additional incubation with soybean trypsin inhibitor (4 μg/well) at 37° C. for 30 min in same buffer (15). The wells were then blocked by BSA and subjected to binding assay with ^3H labeled bacteria.

S. epidermidis BD5703 = test: Proteolytic treatment of bacterial cells, binding of immobilized Vn; type: cell-based, Staphylococcus epidermidis; details: BD5703 cells treated with protease; non-treated control = 100
Description: as §1, §7, §2

[5] = inhibitor 1 mg/ml, added at the same time as bacteria

| Compound | Effect on BD5703 binding of immobilized Vn (in words) [1] | Inhibition of labeled Vn binding to the 16 kDa band (16 kDa protein of BD5703) | Inhibition of labeled Vn binding to the 52 kDa band (52 kDa protein of BD5703) | Inhibition of labeled Vn binding to the 38 kDa band (38 kDa protein of BD5703) | also measured |
| --- | --- | --- | --- | --- | --- |
| C[C@@H](O)[C@H](O)[C@H](O)[C@@H](O)C=O [D-fucose] | not by carbohydrates | – | – | – | – |
| O=C[C@H](O)[C@@H](O)[C@@H](O)[C@H](O)CO [D-galactose] | not by carbohydrates | – | – | – | – |
| O=C[C@H](O)[C@@H](O)[C@H](O)[C@H](O)CO [D-glucose] | not by carbohydrates | – | – | – | – |
| O=C[C@@H](O)[C@@H](O)[C@H](O)[C@H](O)CO [D-mannose] | not by carbohydrates | – | – | – | – |
| Heparin sodium salt [Heparin 1] | reduced significantly | almost erase | almost erase | almost erase | Inhibitory ability compared to hyaluronic acid ([1]; added at the same time as bacteria): more than 2 fold; Relative binding percentage [1, 5]: 18%; Effect on BD5703 binding of immobilized Vn (in words) ([2]; component preincubated with Vn coated wells): increased the binding; Relative binding percentage ([2]; inhibitor 1 mg/ml, preincubated with Vn coated wells for 2 hours, then bacteria added): 135%; Inhibition of labeled Vn binding to the 21 kDa band (21 kDa protein of BD5703): not 21 kDa |
| Soluble Vn: human vitronectin, purified; glycoprotein; also used 125I-labeled | – | – | – | – | Binding of 125I-Vn to immobilized cells [3]: dose-related manner; Level of binding of radioactively labeled Vn in solution [4]: more than 5%; Relative binding percentage ([1]; inhibitor 10 μg/ml, added at the same time as bacteria, control without inhibitor = 100): 40%; Inhibition of binding of immobilized Vn ([1]; soluble Vn added with bacteria): about 60%; Level of binding of radioactively labeled Vn in solution (S. aureus strain V8): 14.2%; Inhibition of binding of labeled Vn to BD5703 surface proteins (BD5703 surface proteins): could be inhibited |
| Trypsin | – | – | – | – | Relative percentage binding of immobilized Vn (S. aureus V8): 70%; Bacterial binding after trypsin treatment of immobilized Vn (immobilized Vn): no binding was obtained; Relative percentage binding of immobilized Vn (S. epidermidis BD5703): 67% |
| fibrinogen | – | slightly blocked | slightly blocked | slightly blocked | – |
| fibronectin | – | slightly blocked | slightly blocked | slightly blocked | – |
| hemopexin: human hemopexin, purified | – | slightly blocked | slightly blocked | slightly blocked | – |
| hyaluronic acid | reduced significantly | – | inhibited | inhibited | Relative binding percentage [1, 5]: 41% |
| plasminogen: human plasminogen from Sigma | – | slightly blocked | slightly blocked | slightly blocked | – |
| thrombospondin: human thrombospondin | – | slightly blocked | slightly blocked | slightly blocked | – |
